Experimental data from patent US4531001A, “2-β-D-ribofuranosylselenazole-4-carboxamide compounds” (priority 1983, dated 1985).
pIC50: −log10 of the molar value. Values after ≈ are worked out from the molar mass of the structure shown. “Also recorded” adds a separate entry of the source. Like-named read-outs stand apart in the source and are kept apart here.

Columns and labels:
P388 = assay: Growth inhibition in suspension cell culture, P388; assay type: cell-based; details: Mus musculus, 72 hours, cell count 50 percent of untreated control, read-out: ID50 (the source's name)
Experimental: (§1) In further tests, growth-inhibitory effects of COMPOUND 1 and COMPOUND 2 were measured against 3 mouse tumor lines in suspension cell culture. Cell cultures were initiated at a density of 50,000 cells/ml in medium RPMI 1630 supplemented with 10 percent fetal calf serum. Composition of this culture medium and details of the culture procedure followed the published method (G. E. Moore, A. A. Sandberg and K. Ulrich, Suspension Cell Culture and in vivo and in-vitro chromosome constitution of mouse leukemia L1210, Journal of the National Cancer Institute 36, 405-415, 1966). Cultures were maintained at 37 degrees in stationary suspension culture under a 95 percent air+5 percent CO2 atmosphere. Test compounds were added to treated cultures at the time of initiation, and were present continually. After 72 hours, 40-fold dilutions of drug-treated and untreated control cultures were prepared in 0.9 percent NACl solution, and cells were counted on an electronic particle counter. The growth-inhibitory effects are expressed as ID50 values, namely, test compound inhibitory dosages or concentrations required to decrease cell count in treated cultures to 50 percent of the cell count of untreated control cultures.

cell culture = assay: Cytotoxicity in cell culture
DNA and RNA viruses = assay: Antiviral activity against the DNA and RNA virus panel; assay type: cell-based
Excerpt: (§2) Microbiol. 22, 797 (1971). A virus rating that is greater than 1.0 indicates definite antiviral activity. […] The results reported below were obtained by testing on Microtest II (Falcon Plastics) plastic panels with a monolayer of Vero or HeLa cells.

Vero cells = assay: Toxicity to Vero cells; details: 1000 ug/ml (highest concentration tested)
L-1210 = assay: Growth inhibition in suspension cell culture, L-1210; assay type: cell-based; details: Mus musculus, L1210, 72 hours, cell count 50 percent of untreated control, read-out: ID50 (the source's name)
Experimental: as §1

3 mouse tumor lines = assay: Growth inhibition in suspension cell culture, representative tumor lines; assay type: cell-based; details: representative tumor lines in cell culture
Experimental: as §1

B16 Melanoma = assay: Growth inhibition in suspension cell culture, B16 Melanoma; assay type: cell-based; details: Mus musculus, 72 hours, cell count 50 percent of untreated control, read-out: ID50 (the source's name)
Experimental: as §1

[1] = Solubility in aqueous media
VSV = assay: microbe, parasite or virus in culture; assay type: cell-based; details: for Virus Rating: >1.0 definite, 0.5-0.9 moderate, <0.5 slight or no activity; for EC50: Vesicular stomatitis virus, read-out: ED50
Measles = assay: Antiviral activity (virus rating method); assay type: cell-based; details: for Virus Rating: >1.0 definite, 0.5-0.9 moderate, <0.5 slight or no activity; for EC50: Measles morbillivirus, read-out: ED50 (the source's name)
Excerpt: as §2

HSV-1 = assay: Antiviral activity (virus rating method); assay type: cell-based; details: for Virus Rating: >1.0 definite, 0.5-0.9 moderate, <0.5 slight or no activity; for EC50: read-out: ED50 (the source's name)
Excerpt: as §2

Ad-2 = assay: Antiviral activity (virus rating method); assay type: cell-based
Excerpt: as §2

Para 3 = assay: Antiviral activity (virus rating method); assay type: cell-based; details: for Virus Rating: >1.0 definite, 0.5-0.9 moderate, <0.5 slight or no activity; for EC50: read-out: ED50 (the source's name)
Excerpt: as §2

HSV-2 = assay: Antiviral activity (virus rating method); assay type: cell-based; details: for Virus Rating: >1.0 definite, 0.5-0.9 moderate, <0.5 slight or no activity; for EC50: read-out: ED50 (the source's name)
Excerpt: as §2

Cox B1 = assay: Antiviral activity (virus rating method); assay type: cell-based; details: for Virus Rating: >1.0 definite, 0.5-0.9 moderate, <0.5 slight or no activity; for EC50: read-out: ED50 (the source's name)
Excerpt: as §2

VV = assay: Antiviral activity (virus rating method); assay type: cell-based; details: for Virus Rating: >1.0 definite, 0.5-0.9 moderate, <0.5 slight or no activity; for EC50: read-out: ED50 (the source's name)
Excerpt: as §2

Mumps = assay: Antiviral activity (virus rating method); assay type: cell-based; details: for Virus Rating: >1.0 definite, 0.5-0.9 moderate, <0.5 slight or no activity; for EC50: read-out: ED50 (the source's name)
Excerpt: as §2

Cox B4 = assay: Antiviral activity (virus rating method); assay type: cell-based; details: for Virus Rating: >1.0 definite, 0.5-0.9 moderate, <0.5 slight or no activity
Excerpt: as §2

Reo 3 = assay: Antiviral activity (virus rating method); assay type: cell-based; details: for Virus Rating: >1.0 definite, 0.5-0.9 moderate, <0.5 slight or no activity; for EC50: read-out: ED50 (the source's name)
Excerpt: as §2

MRC-5 cells = assay: Toxicity to MRC-5 cells; details: 1000 ug/ml (highest concentration tested)
[2] = HeLa, read-out: ED50 (the source's name)

NC(=O)c1c[se]c([C@@H]2O[C@H](CO)[C@@H](O)[C@H]2O)n1 [COMPOUND 1, 2-β-D-ribofuranosylselenazole-4-carboxamide]
pIC50 (P388): 6.57
cytotoxicity in words (cell culture): low cytotoxicity
antiviral activity in words (DNA and RNA viruses; DNA and RNA viruses, Vero or HeLa cells): showed activity against both small and large viruses of both DNA and RNA types; also recorded: good broad spectrum antiviral activity against both DNA and RNA viruses
inhibition of viral cytopathic effects in words (DNA and RNA viruses; cell culture, representative viruses): inhibits viral cytopathic effects in cell culture for representative viruses at extremely low dosage
toxicity to cells (Vero cells): non-toxic
pIC50 (L-1210): 6.40
growth inhibition in words (3 mouse tumor lines): inhibit growth in cell culture for representative tumor lines at extremely low dosage
pIC50 (B16 Melanoma): 5.46
solubility in aqueous media [1]: soluble in aqueous media
antiviral activity in words (VSV; HeLa cells, Rhabdoviridae (VSV)): Excellent antiviral activity
Virus Rating (VSV; HeLa): 2.1
Virus Rating (VSV; Vero): 0.4
EC50 (VSV; HeLa): 9 µg/mL (≈ 29.3 µM)
EC50 (VSV; Vero): 1000 µg/mL (≈ 3260 µM)
Virus Rating (Measles; HeLa): 1.8
EC50 (Measles; HeLa): 2 µg/mL (≈ 6.51 µM)
EC50 (Measles; Vero): 1 µg/mL (≈ 3.26 µM)
Virus Rating (Measles; Vero): 2.0
type of antiviral activity (HSV-1; HSV-1, depending upon cell line): virusstatic
Virus Rating (HSV-1; HeLa): 1.4
EC50 (HSV-1; Human alphaherpesvirus 1, HeLa): 2 µg/mL (≈ 6.51 µM)
EC50 (HSV-1; Human alphaherpesvirus 1, Vero): 30 µg/mL (≈ 97.7 µM)
Virus Rating (HSV-1; Vero): 1.2
antiviral activity in words (Ad-2; HeLa cells, Adenoviridae (Adeno-2)): Excellent antiviral activity
Virus Rating (Ad-2; HeLa, >1.0 definite, 0.5-0.9 moderate, <0.5 slight or no activity): 1.9
EC50 (Ad-2; [2]): 9 µg/mL (≈ 29.3 µM)
Virus Rating (Para 3; HeLa): 2.2
EC50 (Para 3; HeLa): 1 µg/mL (≈ 3.26 µM)
type of antiviral activity (Para 3; Para-3, depending upon cell line): virusstatic
Virus Rating (Para 3; Vero): 2.6
EC50 (Para 3; Vero): 1 µg/mL (≈ 3.26 µM)
Virus Rating (HSV-2; HeLa): 1.5
EC50 (HSV-2; Human alphaherpesvirus 2, HeLa): 4 µg/mL (≈ 13 µM)
EC50 (HSV-2; Human alphaherpesvirus 2, Vero): 10 µg/mL (≈ 32.6 µM)
Virus Rating (HSV-2; Vero): 1.5
antiviral activity in words (Cox B1; HeLa cells, Picornaviridae (Cox B1)): Excellent antiviral activity
Virus Rating (Cox B1; HeLa): 1.8
EC50 (Cox B1; HeLa): 10 µg/mL (≈ 32.6 µM)
Virus Rating (Cox B1; Vero): 1.7
EC50 (Cox B1; Vero): 15 µg/mL (≈ 48.8 µM)
Virus Rating (VV; HeLa): 2.4
EC50 (VV; HeLa): 2 µg/mL (≈ 6.51 µM)
type of antiviral activity (VV; Vaccinia, depending upon cell line): virucidal
Virus Rating (VV; Vero): 2.1
EC50 (VV; Vero): 3 µg/mL (≈ 9.77 µM)
Virus Rating (Mumps; HeLa): 1.0
EC50 (Mumps; HeLa): 1 µg/mL (≈ 3.26 µM)
Virus Rating (Mumps; Vero): 1.7
EC50 (Mumps; Vero): 5 µg/mL (≈ 16.3 µM)
antiviral activity in words (Cox B4; HeLa cells, Picornaviridae (Cox B4)): Excellent antiviral activity
Virus Rating (Cox B4; HeLa): 2.3
EC50 (Cox B4; [2]): 6 µg/mL (≈ 19.5 µM)
EC50 (Cox B4; Vero, read-out: ED50): 1000 µg/mL (≈ 3260 µM)
Virus Rating (Cox B4; Vero): 0.0
Virus Rating (Reo 3; HeLa): 2.7
EC50 (Reo 3; HeLa): 8 µg/mL (≈ 26 µM)
Virus Rating (Reo 3; Vero): 1.8
EC50 (Reo 3; Vero): 1 µg/mL (≈ 3.26 µM)
toxicity to cells (MRC-5 cells): non-toxic
